Measurements: patent publication US20210069356A1, “ISOTOPOLOGUES OF 2-(4-CHLOROPHENYL)-N-((2-(2,6-DIOXOPIPERIDIN-3-YL)-1-OXOISOINDOLIN-5-YL)METHYL)-2,2-DIFLUOROACETAMIDE” (Celgene Corporation, priority 2018, published 2021)
pIC50: −log10 of the molar value.

Experiments:
[1] = tested on: KG-1a cell line; assay: KG-1a cell proliferation, CellTiter-Glo assay; assay type: cell-based; conditions: Homo sapiens; KG-1a cells, 72 hours post-treatment; read-out: FCA Prolif Cell TiterGlo KG-1a 72 h (IC50)
Protocol: (§1) The anti-proliferative activity of the test compounds was evaluated on KG-1 and KG-1a cell lines using CellTiter-Glo assay as described in U.S. Pat. No. 9,499,514 at 72 hours post-treatment.

[2] = tested on: KG-1 cell line; assay: KG-1 cell proliferation, CellTiter-Glo assay; assay type: cell-based; conditions: Homo sapiens; KG-1 cells, 72 hours post-treatment; read-out: FCA Prolif Cell TiterGlo KG-1 72 h (IC50)
Protocol: as §1

Structure (SMILES) | pIC50 [1] | pIC50 [2]
[2H]c1cc(C(F)(F)C(=O)NCc2ccc3c(c2)CN(C2CCC(=O)NC2=O)C3=O)ccc1Cl (stereo not drawn) | 7.74 | 7.81
[2H]c1cc(Cl)ccc1C(F)(F)C(=O)NCc1ccc2c(c1)CN(C1CCC(=O)NC1=O)C2=O (stereo not drawn) | 7.52 | 7.43
[2H]c1c([2H])c(C(F)(F)C(=O)NCc2ccc3c(c2)CN(C2CCC(=O)NC2=O)C3=O)c([2H])c([2H])c1Cl (stereo not drawn) | 7.50 | 7.58
